Experimental findings from patent publication US6372917B1, “Biphenylsulfonyl-substituted imidazole derivatives, their preparation process, their use as a drug or diagnostic agent and drug containing them” (Aventis Pharma Deutschland GmbH, priority 1998, dated 2002) are described below.

Data set [1] concerns Na+-dependent Cl-/HCO3- exchanger (NCBE). The data set can be described thus: Inhibition of the Na+-dependent Cl-/HCO3- exchanger (NCBE) in human endothelial cells (pHi recovery, BCECF fluorescence, FLIPR). Format: cell-based. Particulars: inhibitor concentration 10 μM; human endothelial cells (ECV-304); 50 μM HOE 642 present; 35° C., 2 minutes. As for the experimental part: Inhibition of the Na^+-dependent Cl^−/HCO3^− exchanger (NCBE) in human endothelial cells
Human endothelial cells (ECV-304) were detached from culture bottles with the aid of trypsin/EDTA buffer (0.05/0.02% in phosphate buffer) and, after centrifugation (100 g, 5 min), taken up in a buffered salt solution (mmol/l: 115 NaCl, 20 NH4Cl, 5 KCl, 1 CaCl2, 1 MgSO4, 20 N-(2-hydroxyethyl)piperazine-N-2-ethanesulfonic acid (HEPES), 5 glucose and 1 g/l of bovine serum albumin; pH 7.4). This cell suspension was incubated at 37° C. for 20 min with 5 μM BCECF-acetoxymethyl ester. […] For subsequent fluorescence measurement in an FLIPR (Fluorescent Imaging Plate Reader) 100 μl of this cell suspension having 20,000 cells in each case were pipetted per well into a 96-well microtiter plate and this microtiter plate was centrifuged (100 g, 5 min). […] After addition of the buffer solutions to the dye-loaded, acidified cells in the measurement plate, the rise in the fluorescence intensity, which corresponded to a rise in the pHi, in each well of the microtiter plate was determined. The kinetics were in this case recorded at 35° C. for a period of 2 minutes. The increase in the fluorescence intensities for different concentrations of the compounds according to the invention was related to the two controls and from this the inhibitory action of the substances was determined.

Consider `CS(=O)(=O)c1cc(-c2ccccc2S(=O)(=O)NC#N)ccc1Cn1c(-c2ccccc2)nc(Cl)c1C=O` [Example 2, 4′-(4-Chloro-5-formyl-2-phenylimidazol-1-ylmethyl)-3′-methanesulfonylbiphenyl-2-sulfonylcyanamide], for which the melting point was 220 °C (dec.). Also, the “Residual activity of the NCBE at an inhibitor concentration of 10 μM” value in data set [1] came to 18.3%.

As a reminder, the melting point is the temperature, or range, at which the solid turns liquid.
